For data set [1], the system named is Mus musculus. As to the kind of experiment: Anti osteoporosis in 16 months old C57 mouse assessed as endothelial cell level in femur administered at 30 mg/kg/day, IG continuously for 4 months by scRNA-seq analysis (reference value: 2.34%). The conditions noted are these: 2920 h. Type of data set: functional.
Data set [2] can be described thus: Toxicity in 16 months old C57 mouse assessed as change in urea level administered at 30 mg/kg/day, IG continuously for 4 months. In kind it is organism-based. The conditions noted are these: in vivo, po, 2920 h.
Data set [3] concerns Mus musculus. As to the kind of experiment: Anti osteoporosis in 16 months old C57 mouse assessed as increase in bone mass administered at 30 mg/kg/day, IG continuously for 4 months by micro CT analysis relative to young control group. Type of data set: functional, organism-based.
Data set [4] can be described thus: Toxicity in 2.5 months old SAMP-6 rapid aging mouse model assessed as change in urea level administered at 30 mg/kg/day, IG continuously for 3 months in presence of ALN. The conditions noted are these: in vivo, po, 2190 h. Type of data set: organism-based.
Data set [5] in a line: Toxicity in 2.5 months old SAMP-6 rapid aging mouse model assessed as change in triglyceride level administered at 30 mg/kg/day, IG continuously for 3 months in presence of ALN. Type of data set: organism-based. The conditions noted are these: in vivo, po, 2190 h.
Data set [6] deals with Mus musculus. As to the kind of experiment: Anti osteoporosis in 16 months old C57 mouse assessed as fold increase in chondrocytes level in femur administered at 30 mg/kg/day, IG continuously for 4 months by scRNA-seq analysis relative to control. Type of data set: functional. The conditions noted are these: 2920 h.
A short description of data set [7]: Toxicity in 16 months old C57 mouse assessed as change in serum AST level administered at 30 mg/kg/day, IG continuously for 4 months. The conditions noted are these: in vivo, po, 2920 h. Type of data set: organism-based.
A further data set has as its system Osteoblast. As to the kind of experiment: Regulation of osteogenesis in 16 months old C57 mouse osteoblast endoplasmic reticulum assessed as increase in Hspa8 gene by scRNA-seq analysis. In kind it is functional, cell-based.
Data set [8] can be described thus: Toxicity in 2.5 months old SAMP-6 rapid aging mouse model assessed as change in ALP level administered at 30 mg/kg/day, IG continuously for 3 months. Type of data set: organism-based. The conditions noted are these: in vivo, po, 2190 h.
Data set [9] deals with Mus musculus. As to the kind of experiment: Anti osteoporosis in 16 months old C57 mouse assessed as B cell level in femur administered at 30 mg/kg/day, IG continuously for 4 months by scRNA-seq analysis (reference value: 5.19%). In kind it is functional. The conditions noted are these: 2920 h.

The source made the active and inactive calls. The rule behind the calls is not given here.

Take `COc1ccc2cc(C(=O)NCCN(C)C)oc2c1.CS(=O)(=O)O`: the Activity is reported as 2.38% in the data set with Mus musculus [1]; “Non-Toxic” in data set [2]; “Non-Toxic” in data set [4]; “Non-Toxic” in data set [5]; “Non-Toxic” in data set [7]; “Non-Toxic” in data set [8]. In addition, in the data set with Mus musculus [9], the Activity was 3.05%. Besides, the result with Mus musculus [3] and in the data set on Osteoblast was Active. In addition, in the data set with Mus musculus [6], the “fold change (FC)” value is 2.

The values are drawn from ChEMBL document CHEMBL5380777, “Efficacy, Mechanism, and Structure-Activity Relationship of 6-Methoxy Benzofuran Derivatives as a Useful Tool for Senile Osteoporosis” (J Med Chem, 2023).
